Data published in ChEMBL document CHEMBL1681651, “A broad spectrum anticancer nucleoside with selective toxicity against human colon cells in vitro” (2011).

What was measured:
Format in all cases: functional
[1] = test system: SK-MEL-2; test: Growth inhibition of human SK-MEL-2 cells assessed as cell growth at 10 uM after 48 hrs by SRB assay; details: SK-MEL-2, 48 h, read-out: Activity
[2] = test system: CCRF-CEM; test: Growth inhibition of human CCRF-CEM cells after 48 hrs by […] growth inhibition assay
[3] = test system: CAKI-1; test: Growth inhibition of human Caki1 cells after 48 hrs by […] growth inhibition assay; details: CAKI-1, 48 h
[4] = test system: EKVX; test: Growth inhibition of human EKVX cells assessed as cell growth at 0.1 uM after 48 hrs by SRB assay; details: read-out: Activity
[5] = test system: A549; test: Growth inhibition of human A549 cells assessed as cell growth at 1 uM after 48 hrs by SRB assay; details: A549, 48 h, read-out: Activity
[6] = test system: UO-31; test: Growth inhibition of human UO31 cells assessed as cell growth at 10 uM after 48 hrs by SRB assay; details: UO-31, 48 h, read-out: Activity
[7] = test system: SN12C; test: Growth inhibition of human SN12C cells assessed as cell growth at 1 uM after 48 hrs by SRB assay; details: read-out: Activity
[8] = test system: ACHN; test: Growth inhibition of human ACHN cells assessed as cell growth at 10 uM after 48 hrs by SRB assay; details: read-out: Activity
[9] = test system: OVCAR-4; test: Growth inhibition of human OVCAR4 cells assessed as cell growth at 10 uM after 48 hrs by SRB assay; details: OVCAR-4, 48 h, read-out: Activity
[10] = test system: T47D; test: Growth inhibition of human T47D cells assessed as cell growth at 1 mM after 48 hrs by SRB assay; details: read-out: Activity
[11] = test system: Malme-3M; test: Growth inhibition of human MALME-3M cells assessed as cell growth at 0.1 uM after 48 hrs by SRB assay; details: read-out: Activity
[12] = test system: KM12; test: Growth inhibition of human KM12 cells assessed as cell growth at 1 mM after 48 hrs by SRB assay; details: KM12, 48 h, read-out: Activity
[13] = test system: NCI-H460; test: Growth inhibition of human NCI-H460 cells assessed as cell growth at 1 uM after 48 hrs by SRB assay; details: NCI-H460, 48 h, read-out: Activity
[14] = test system: Malme-3M; test: Growth inhibition of human MALME-3M cells assessed as cell growth at 10 uM after 48 hrs by SRB assay; details: read-out: Activity
[15] = test system: TK-10; test: Growth inhibition of human TK10 cells assessed as cell growth at 1 mM after 48 hrs by SRB assay; details: TK-10, 48 h, read-out: Activity
[16] = test system: SNB-75; test: Growth inhibition of human SNB75 cells assessed as cell growth at 0.1 uM after 48 hrs by SRB assay; details: SNB-75, 48 h, read-out: Activity
[17] = test system: U-251; test: Growth inhibition of human U251 cells assessed as cell growth at 1 uM after 48 hrs by SRB assay; details: U-251, 48 h, read-out: Activity
[18] = test system: NCI-H460; test: Growth inhibition of human NCI-H460 cells assessed as cell growth at 0.1 uM after 48 hrs by SRB assay; details: NCI-H460, 48 h, read-out: Activity
[19] = test system: OVCAR-5; test: Growth inhibition of human OVCAR5 cells assessed as cell growth at 0.1 uM after 48 hrs by SRB assay; details: OVCAR-5, 48 h, read-out: Activity
[20] = test system: HOP-62; test: Growth inhibition of human HOP62 cells after 48 hrs by […] growth inhibition assay; details: HOP-62, 48 h
[21] = test system: KM12; test: Growth inhibition of human KM12 cells assessed as cell growth at 10 uM after 48 hrs by SRB assay; details: KM12, 48 h, read-out: Activity
[22] = test system: LOX IMVI; test: Growth inhibition of human LOXIMVI cells assessed as cell growth at 100 uM after 48 hrs by SRB assay; details: read-out: Activity
[23] = test system: CCRF-CEM; test: Growth inhibition of human CCRF-CEM cells assessed as cell growth at 1 uM after 48 hrs by SRB assay; details: read-out: Activity
[24] = test system: HT-29; test: Growth inhibition of human HT-29 cells after 48 hrs by […] growth inhibition assay; details: HT-29, 48 h
[25] = test system: M14; test: Growth inhibition of human M14 cells after 48 hrs by […] growth inhibition assay; details: M14, 48 h
[26] = test system: HCT-15; test: Growth inhibition of human HCT15 cells assessed as cell growth at 100 uM after 48 hrs by SRB assay; details: HCT-15, 48 h, read-out: Activity
[27] = test system: UO-31; test: Growth inhibition of human UO31 cells assessed as cell growth at 1 uM after 48 hrs by SRB assay; details: UO-31, 48 h, read-out: Activity
[28] = test system: HT-29; test: Growth inhibition of human HT-29 cells assessed as cell growth at 10 uM after 48 hrs by SRB assay; details: HT-29, 48 h, read-out: Activity
[29] = test system: SK-MEL-5; test: Growth inhibition of human SK-MEL-5 cells assessed as cell growth at 100 uM after 48 hrs by SRB assay; details: SK-MEL-5, 48 h, read-out: Activity
[30] = test system: BT-549; test: Growth inhibition of human BT549 cells assessed as cell growth at 0.1 uM after 48 hrs by SRB assay; details: BT-549, 48 h, read-out: Activity
[31] = test system: OVCAR-8; test: Growth inhibition of human OVCAR8 cells assessed as cell growth at 10 uM after 48 hrs by SRB assay; details: OVCAR-8, 48 h, read-out: Activity
[32] = test system: MCF7; test: Growth inhibition of human MCF7 cells assessed as cell growth at 100 uM after 48 hrs by SRB assay; details: MCF7, 48 h, read-out: Activity
[33] = test system: U-251; test: Growth inhibition of human U251 cells assessed as cell growth at 0.1 uM after 48 hrs by SRB assay; details: U-251, 48 h, read-out: Activity
[34] = test system: OVCAR-4; test: Growth inhibition of human OVCAR4 cells after 48 hrs by […] growth inhibition assay; details: OVCAR-4, 48 h
[35] = test system: OVCAR-8; test: Growth inhibition of human OVCAR8 cells assessed as cell growth at 0.1 uM after 48 hrs by SRB assay; details: OVCAR-8, 48 h, read-out: Activity
[36] = read-out: LC50 (the source's name)
[37] = read-out: pLC50 (the source's name) (converted)

SMILES: CCOC(=O)C[C@H]1[C@@H](O[Si](C)(C)C(C)(C)C)[C@H](n2cnc3c(NC(=O)Nc4ccccc4)ncnc32)O[C@@H]1CNC(=O)NC
- growth at 10 µM [1]: 99%
- GI50 ([2]; read-out: GI50): 6.69 µM
- LC50 (lethal concentration, 50% net cell kill) ([2]; read-out: LC50): > 100 µM
- TGI ([2]; read-out: TGI): 88.6 µM
- GI50 ([2]; read-out: pGI50 (converted)): 6.76 µM
- LC50 (lethal concentration, 50% net cell kill) ([2]; read-out: pLC50 (converted)): > 100 µM
- TGI ([2]; read-out: pTGI (converted)): 89.1 µM
- GI50 ([3]; read-out: GI50): 29.7 µM
- CC50 [3, 36]: > 100 µM
- TGI ([3]; read-out: TGI): > 100 µM
- GI50 ([3]; read-out: pGI50 (converted)): 29.5 µM
- CC50 [3, 37]: > 100 µM
- TGI ([3]; read-out: pTGI (converted)): > 100 µM
- growth at 0.1 µM [4]: 92%
- growth at 1 µM [5]: 103%
- growth at 10 µM [6]: 82%
- growth at 1 µM [7]: 101%
- growth at 10 µM [8]: 96%
- growth at 10 µM [9]: 95%
- growth at 1000 µM [10]: 13%
- growth at 0.1 µM [11]: 104%
- growth at 1000 µM [12]: -28%
- growth at 1 µM [13]: 102%
- growth at 10 µM [14]: 92%
- growth at 1000 µM [15]: -38%
- growth at 0.1 µM [16]: 92%
- growth at 1 µM [17]: 95%
- growth at 0.1 µM [18]: 102%
- growth at 0.1 µM [19]: 104%
- GI50 ([20]; read-out: GI50): 8.96 µM
- CC50 [20, 36]: 73.1 µM
- TGI ([20]; read-out: TGI): 26.4 µM
- GI50 ([20]; read-out: pGI50 (converted)): 8.91 µM
- CC50 [20, 37]: 72.4 µM
- TGI ([20]; read-out: pTGI (converted)): 26.3 µM
- growth at 10 µM [21]: 105%
- growth at 100 µM [22]: 35%
- growth at 1 µM [23]: 100%
- GI50 ([24]; read-out: GI50): 4.2 µM
- CC50 [24, 36]: > 100 µM
- TGI ([24]; read-out: TGI): > 100 µM
- GI50 ([24]; read-out: pGI50 (converted)): 4.17 µM
- CC50 [24, 37]: > 100 µM
- TGI ([24]; read-out: pTGI (converted)): > 100 µM
- GI50 ([25]; read-out: GI50): 2.51 µM
- CC50 [25, 36]: 78.6 µM
- TGI ([25]; read-out: TGI): 11.6 µM
- GI50 ([25]; read-out: pGI50 (converted)): 2.51 µM
- CC50 [25, 37]: 79.4 µM
- TGI ([25]; read-out: pTGI (converted)): 11.5 µM
- growth at 100 µM [26]: 47%
- growth at 1 µM [27]: 87%
- growth at 10 µM [28]: 104%
- growth at 100 µM [29]: 28%
- growth at 0.1 µM [30]: 104%
- growth at 10 µM [31]: 98%
- growth at 100 µM [32]: 16%
- growth at 0.1 µM [33]: 98%
- GI50 ([34]; read-out: GI50): 12.3 µM
- CC50 [34, 36]: > 100 µM
- TGI ([34]; read-out: TGI): > 100 µM
- GI50 ([34]; read-out: pGI50 (converted)): 12.3 µM
- CC50 [34, 37]: > 100 µM
- TGI ([34]; read-out: pTGI): > 100 µM
- growth at 0.1 µM [35]: 99%

SMILES: CNC(=O)OC[C@H]1O[C@@H](n2cnc3c(NC(=O)Nc4ccccc4)ncnc32)[C@H](O[Si](C)(C)C(C)(C)C)[C@@H]1O[Si](C)(C)C(C)(C)C
- growth at 10 µM [1]: 82.9%
- growth at 10 µM [6]: 106%
- growth at 10 µM [8]: 94.6%
- growth at 10 µM [9]: 85.8%
- growth at 10 µM [14]: 114%
- growth at 10 µM [21]: 110%
- growth at 10 µM [28]: 81.3%
- growth at 10 µM [31]: 88.8%
